Read-outs that look alike come from different tables or passages of the source.
System: Kornkäfer (sitophilus granarius L)
Assay: whole plant or invertebrate
Type: in vivo
Settings: for mortality at 1000 µg/mL: Sitophilus granarius, read-out: Wirksamkeit in % Substanz allein
Description: Test von tertiären, heterocyclischen Aminen allein und im Gemisch mit Pyrethroiden an Kornkäfern (sitophilus granarius L)
In Petrischalen mit 15 cm Durchmesser mit talcumbepuderten Seitenwänden, um das Entfliehen der Kornkäfer zu verhindern, wurden jeweils 2 ml der Acetonlösungen einpipettiert und durch vorsichtiges Schwenken der Schalen gleichmäßig auf dem Boden verteilt. Nach dem Abdampfen des Acetons und dem Antrocknen der Beläge wurden in jede Schale 25 Kornkäfer eingezählt. Nach einer Stunde wurde jeweils ein 12,5 cm Rundfilter in die Schalen eingelegt, um den Käfern das Befreien aus der Rückenlage zu ermöglichen, was auf der glatten Glasplatte nicht möglich ist. Die lichtscheuen Käfer verkrochen sich mit Vorliebe unter die Filter und blieben so ständig mit den Wirkstoffbelägen in Kontakt. Alle Versuche liefen mit 3 Wiederholungen. Nach 3 h wurden die toten Käfer ausgezählt.
In der Tabelle 3 ist jeweils der Durchschnitt der Summe der 4 Einzelwerte angegeben. 25 tote Kornkäfer entsprechen dabei einer Wirkung von 100 %. Die Temperaturen betrugen während der Tests im Durchschnitt 19 - 21°C. Der synergistische Faktor berechnet sich analog wie in Beispiel 1 angegeben.
Die zu prüfenden tertiären, heterocyclischen Amine wurden - mit 1 mg Wirkstoff pro ml als Acetonlösungen angesetzt. Sie wurden im Verhältnis 1 : 1 mit Ripcord bzw. Talcord, die mit 0,01 mg Wirkstoff pro ml als Acetonlösung vorlagen, gemischt. Die Einzelkomponenten wurden im Verhältnis 1 : 1 mit Aceton gemischt.
Auch bei diesen Versuchen zeigten die Kontrollversuche stets bei Versuchsende eine Mortalität der Kornkäfer von 0 %.
Die synergistische Wirkung der tertiären, heterocyclischen Amine auf die Pyrethroide ist auch dann noch deutlich, wenn das Amin in wesentlich niederen Aufwandmengen eingesetzt wird, als dies in Beispiel 3 beschrieben wurde. Die Ergebnisse sind in der Tabelle 4 zusammengestellt. Dieser Versuch zeigt auch, daß Amine mit insektiziden Eigenschaften, wenn sie in Konzentrationen unterhalb ihres insektiziden Wirkungsbereiches eingesetzt werden, immer noch gute synergistische Wirkungen im Gemisch mit Pyrethroiden zeigen. Die Versuche wurden wie im Beispiel 3 beschrieben mit Kornkäfern durchgeführt. Es wurden lediglich die Konzentrationen der eingesetzten tertiären, heterocyclischen Amine geändert. Für die Verdünnung Pyrethroid : Amin = 1 : 10 wurde das Amin mit 0,1 mg Wirkstoff/ml Acetonlösung eingesetzt. Für die Verdünnung 1 : 5 mit 0,05 mg Wirkstoff/ml.

[1] = amine 1 mg/ml in Aceton mixed 1 : 1 with Aceton, 2 ml per dish, 25 weevils, dead counted after 3 h
[2] = amine 1 mg/ml mixed 1 : 1 with Ripcord 0,01 mg/ml, 3 h
[3] = amine 1 mg/ml mixed 1 : 1 with Talcord 0,01 mg/ml, 3 h
[4] = amine 1 mg/ml + Ripcord 0,01 mg/ml
[5] = amine 1 mg/ml + Talcord 0,01 mg/ml
[6] = sitophilus granarius, in vivo, 3 h

What does the source list for `c1ccc(C(N2CCCCC2)N2CCCCC2)cc1` [Benzal-di-N,N-piperidin]?
Wirksamkeit in % Substanz allein [1]: 0%; Wirksamkeit in % Substanz +Ripcord [2]: 40,0%; Wirksamkeit in % Substanz +Talcord [3]: 18,8%; Synergistischer Faktor bei Ripcord (in vivo): 1,26; Synergistischer Faktor bei Talcord (in vivo): 1,94

How did the “Synergistischer Faktor bei Ripcord” value [4] turn out when `c1ccc(OCCN2CCCC2)cc1` [N-1-2-phenoxiethyl-pyrrolidin] was run?
Its value is 1,69.

What about the “Synergistischer Faktor bei Talcord” value [5] of the same compound?
The value was 2,88.

What about the “Wirksamkeit in % Substanz allein” value [1] of the same compound?
The value was 0%.

What about the “Wirksamkeit in % Substanz +Ripcord” value [2] of the same compound?
The value was 53,2%.

What about the “Wirksamkeit in % Substanz +Talcord” value [3] of the same compound?
The value was 28,0%.

How did the “Synergistischer Faktor bei Ripcord” value [4] turn out when `CCOCCN1CCCC1` [N-1-(1'-Ethoxiethyl-(2))-pyrrolidin] was run?
The value was 2,22.

What about the “Wirksamkeit in % Substanz allein” value [1] of the same compound?
The value was 0%.

And the “Wirksamkeit in % Substanz +Ripcord” value [2]?
Its value is 70,0%.

And the “Wirksamkeit in % Substanz +Talcord” value [3]?
The value was 0%.

For `CCCCOCCOCCN1CCCC1` [N-1-(2'-Butoxi-diethyl-ether-(2))-pyrrolidin], which “Synergistischer Faktor bei Ripcord” value (in vivo) is on record?
The value was 2,47.

And the “Wirksamkeit in % Substanz +Ripcord” value [6]?
The value was 78,0%.

And the “Wirksamkeit in % Substanz +Talcord” value [6]?
Its value is 8,9%.

What about the “Wirksamkeit in % Substanz allein” value [6] of the same compound?
The value was 0%.

With `CCCCC(CC)CN1CCCC1` (stereo not drawn) [N-1-(2-Ethyl)-hexyl-pyrrolidin] as the compound, how does the “Synergistischer Faktor bei Ripcord” value [4] read?
The value was 1,78.

What about the “Synergistischer Faktor bei Talcord” value [5] of the same compound?
The value was 4,24.

And the “Wirksamkeit in % Substanz allein” value [1]?
Its value is 0%.

What about the “Wirksamkeit in % Substanz +Ripcord” value [2] of the same compound?
The value was 56,0%.

What about the “Wirksamkeit in % Substanz +Talcord” value [3] of the same compound?
The value was 41,2%.

Which “Synergistischer Faktor bei Ripcord” value [4] does the source give for `C=CCN1CCCCC1` [N-1-Allyl-piperidin] here?
The value was 2,32.

And the “Synergistischer Faktor bei Talcord” value [5]?
Its value is 1,36.

And the “Wirksamkeit in % Substanz allein” value [1]?
Its value is 0%.

What about the “Wirksamkeit in % Substanz +Ripcord” value [2] of the same compound?
The value was 73,2%.

What about the “Wirksamkeit in % Substanz +Talcord” value [3] of the same compound?
The value was 13,2%.

Which results are given for `CCCCCCCCCCN1CCOCC1` [N-1-Decyl-morpholin]?
mortality at 1000 µg/mL [1]: 0%; Synergistischer Faktor bei Ripcord [4]: 2,32; Synergistischer Faktor bei Talcord [5]: 8,37; Wirksamkeit in % Substanz +Ripcord [2]: 73,1%; Wirksamkeit in % Substanz +Talcord [3]: 81,2%

How did the mortality at 1000 µg/mL [1] turn out when `CCCCCCCCCCCCN1CCCCC1C` (stereo not drawn) [N-1-Dodecyl-2-methyl-piperidin] was run?
The mortality at 1000 µg/mL was 0%.

What about the “Synergistischer Faktor bei Ripcord” value [4] of the same compound?
Its value is 1,49.

And the “Synergistischer Faktor bei Talcord” value [5]?
Its value is 2,06.

What about the “Wirksamkeit in % Substanz +Ripcord” value [2] of the same compound?
Its value is 46,8%.

And the “Wirksamkeit in % Substanz +Talcord” value [3]?
Its value is 20,0%.

`CCCCCCCCCCCCN1CC1` [N-1-Dodecyl-ethylenimin] was tested. Which mortality at 1000 µg/mL (3 h) did it give?
The mortality at 1000 µg/mL was 0%.

And the “Synergistischer Faktor bei Ripcord” value [4]?
The value was 2,86.

What about the “Synergistischer Faktor bei Talcord” value [5] of the same compound?
Its value is 3,71.

What about the “Wirksamkeit in % Substanz +Ripcord” value [2] of the same compound?
The value was 90,0%.

And the “Wirksamkeit in % Substanz +Talcord” value [3]?
The value was 36,0%.

For `CCCCCCCCCCCCN1CCCCCC1` [N-1-Dodecyl-hexamethylenimin], which mortality at 1000 µg/mL [1] is on record?
The mortality at 1000 µg/mL was 14%.

What about the “Synergistischer Faktor bei Ripcord” value [4] of the same compound?
Its value is 1,59.

And the “Synergistischer Faktor bei Talcord” value [5]?
The value was 1,03.

And the “Wirksamkeit in % Substanz +Ripcord” value [2]?
The value was 64,0%.

And the “Wirksamkeit in % Substanz +Talcord” value [3]?
The value was 24,0%.

Which mortality at 1000 µg/mL [1] does the source give for `CCCCCCCCCCCCN1CCOCC1` [N-1-Dodecyl-morpholin] here?
The mortality at 1000 µg/mL was 0%.

And the “Synergistischer Faktor bei Ripcord” value [4]?
The value was 2,76.

What about the “Synergistischer Faktor bei Talcord” value [5] of the same compound?
Its value is 1,53.

And the “Wirksamkeit in % Substanz +Ripcord” value [2]?
The value was 86,8%.

What about the “Wirksamkeit in % Substanz +Talcord” value [3] of the same compound?
Its value is 14,8%.

For `CCCCCCCCCCCCN1CCCCC1` [N-1-Dodecyl-piperidin], which mortality at 1000 µg/mL [1] is on record?
The mortality at 1000 µg/mL was 24%.

What about the “Synergistischer Faktor bei Ripcord” value [4] of the same compound?
Its value is 2,24.

And the “Wirksamkeit in % Substanz +Ripcord” value [2]?
The value was 94,6%.

With `CCCCCCCCCCCCN1CCCC1` [N-1-Dodecyl-pyrrolidin] as the compound, how does the mortality at 1000 µg/mL [1] read?
The mortality at 1000 µg/mL was 89.3%.

And the “Wirksamkeit in % Substanz +Ripcord” value [2]?
The value was 92,0%.

And the “Wirksamkeit in % Substanz +Talcord” value [3]?
Its value is 96,0%.

Which results are given for `CCOCCN1CCCCC1` [N-1-Ethoxi-ethyl-(2)-piperidin]?
Synergistischer Faktor bei Ripcord [4]: 1,78; Wirksamkeit in % Substanz allein [1]: 0%; Wirksamkeit in % Substanz +Ripcord [2]: 56,0%; Wirksamkeit in % Substanz +Talcord [3]: 0%

For `CCCCCCCCCCCCCCCCN1CCCCC1CC` (stereo not drawn) [N-1-Hexadecyl-2-ethyl-piperidin], which mortality at 1000 µg/mL [1] is on record?
Its mortality at 1000 µg/mL is 0%.

What about the “Synergistischer Faktor bei Ripcord” value [4] of the same compound?
The value was 2,37.

And the “Synergistischer Faktor bei Talcord” value [5]?
The value was 1,94.

And the “Wirksamkeit in % Substanz +Ripcord” value [2]?
The value was 74,8%.

And the “Wirksamkeit in % Substanz +Talcord” value [3]?
Its value is 18,8%.

Which mortality at 1000 µg/mL [1] does the source give for `CCCCCCCCCN1CCCCCC1` [N-1-Nonyl-hexamethylenimin] here?
The mortality at 1000 µg/mL was 40%.

What about the “Synergistischer Faktor bei Ripcord” value [4] of the same compound?
Its value is 1,82.

And the “Synergistischer Faktor bei Talcord” value [5]?
Its value is 4,54.

And the “Wirksamkeit in % Substanz +Ripcord” value [2]?
The value was 97,2%.

And the “Wirksamkeit in % Substanz +Talcord” value [3]?
Its value is 84,0%.

What does the source list for `CCCCCCCCN1CCCCC1CC` (stereo not drawn) [N-1-Octyl-2-ethyl-piperidin]?
mortality at 1000 µg/mL [1]: 26.8%; Synergistischer Faktor bei Ripcord [4]: 1,52; Synergistischer Faktor bei Talcord [5]: 2,60; Wirksamkeit in % Substanz +Ripcord [2]: 74,8%; Wirksamkeit in % Substanz +Talcord [3]: 52,0%

Which mortality at 1000 µg/mL [1] does the source give for `CCCCCCCCN1CCCCC1` [N-1-Octyl-piperidin] here?
The mortality at 1000 µg/mL was 0%.

What about the “Synergistischer Faktor bei Ripcord” value [4] of the same compound?
Its value is 1,74.

And the “Synergistischer Faktor bei Talcord” value [5]?
The value was 1,24.

What about the “Wirksamkeit in % Substanz +Ripcord” value [2] of the same compound?
Its value is 54,8%.

And the “Wirksamkeit in % Substanz +Talcord” value [3]?
The value was 12,0%.

With `CCCCCCCCN1CCCC1` [N-1-Octyl-pyrrolidin] as the compound, how does the mortality at 1000 µg/mL [1] read?
The mortality at 1000 µg/mL was 0%.

What about the “Synergistischer Faktor bei Ripcord” value [4] of the same compound?
The value was 1,78.

And the “Synergistischer Faktor bei Talcord” value [5]?
Its value is 4,12.

What about the “Wirksamkeit in % Substanz +Ripcord” value [2] of the same compound?
Its value is 56,0%.

What about the “Wirksamkeit in % Substanz +Talcord” value [3] of the same compound?
Its value is 40,0%.

How did the mortality at 1000 µg/mL [1] turn out when `CCCCCN1CCOCC1` [N-1-Pentyl-morpholin] was run?
The mortality at 1000 µg/mL was 0%.

And the “Synergistischer Faktor bei Ripcord” value [4]?
Its value is 2,79.

And the “Synergistischer Faktor bei Talcord” value [5]?
Its value is 3,83.

And the “Wirksamkeit in % Substanz +Ripcord” value [2]?
Its value is 88,0%.

What about the “Wirksamkeit in % Substanz +Talcord” value [3] of the same compound?
The value was 37,2%.

What does the source list for `CCCCCN1CCCCC1` [N-1-Pentyl-piperidin]?
mortality at 1000 µg/mL [1]: 0%; Synergistischer Faktor bei Ripcord [4]: 1,94; Synergistischer Faktor bei Talcord [5]: 2,06; Wirksamkeit in % Substanz +Ripcord [2]: 61,2%; Wirksamkeit in % Substanz +Talcord [3]: 20,0%

For `CCCCCN1CCCC1` [N-1-Pentyl-pyrrolidin], which mortality at 1000 µg/mL [1] is on record?
The mortality at 1000 µg/mL was 0%.

And the “Synergistischer Faktor bei Ripcord” value [4]?
The value was 2,37.

What about the “Synergistischer Faktor bei Talcord” value [5] of the same compound?
Its value is 10,3.

What about the “Wirksamkeit in % Substanz +Ripcord” value [2] of the same compound?
The value was 74,8%.

What about the “Wirksamkeit in % Substanz +Talcord” value [3] of the same compound?
The value was 100,0%.

With `c1ccc(CCN2CCOCC2)cc1` [N-1-Phenyl-ethyl-(2)-morpho-lin] as the compound, how does the “Synergistischer Faktor bei Ripcord” value [4] read?
The value was 2,76.

And the “Synergistischer Faktor bei Talcord” value [5]?
Its value is 7,55.

What about the “Wirksamkeit in % Substanz allein” value [1] of the same compound?
Its value is 0%.

What about the “Wirksamkeit in % Substanz +Ripcord” value [2] of the same compound?
The value was 86,8%.

What about the “Wirksamkeit in % Substanz +Talcord” value [3] of the same compound?
Its value is 73,2%.

— EP0029617A1, “Use of tertiary heterocyclic amines as synergists in pesticides; derivatives of cycloamines” (priority 1979, dated 1981)
